≈ marks a conversion by molar mass, not a printed value.
Key:
[1] = target: T1, Diacylglycerol O-acyltransferase 1 (Homo sapiens, UniProt O75907); details: sf9
T1 sequence (O75907 whole entry): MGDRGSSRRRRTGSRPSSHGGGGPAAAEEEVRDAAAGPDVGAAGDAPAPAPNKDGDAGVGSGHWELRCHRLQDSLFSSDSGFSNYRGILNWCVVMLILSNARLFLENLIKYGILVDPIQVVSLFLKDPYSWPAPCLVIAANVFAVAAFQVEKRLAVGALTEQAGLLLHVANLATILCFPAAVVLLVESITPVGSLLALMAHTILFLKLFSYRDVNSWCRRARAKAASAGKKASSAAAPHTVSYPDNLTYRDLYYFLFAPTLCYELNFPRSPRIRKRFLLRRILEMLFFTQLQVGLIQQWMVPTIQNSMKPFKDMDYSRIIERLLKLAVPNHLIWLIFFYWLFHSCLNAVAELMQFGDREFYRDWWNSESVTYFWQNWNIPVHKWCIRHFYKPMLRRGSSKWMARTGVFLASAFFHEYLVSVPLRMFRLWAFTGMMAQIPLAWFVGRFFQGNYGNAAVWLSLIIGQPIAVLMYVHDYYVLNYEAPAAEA
Description: (§1) Inhibition of human recombinant DGAT1 expressed in Sf9 cells by liquid scintillography

[2] = Lipophilicity, log D of the compound at pH 7.4 by chromatographic method; details: buffer
[3] = target: T1, Diacylglycerol O-acyltransferase 1
Description: as §1

[4] = Apparent permeability from apical to basolateral side in human Caco2 cells at pH 7.4; type: ADME, cell-based; details: Caco-2, pH 7.4
[5] = target: T2, Sterol O-acyltransferase 1 (Homo sapiens, UniProt P35610)
T2 sequence (P35610 whole entry): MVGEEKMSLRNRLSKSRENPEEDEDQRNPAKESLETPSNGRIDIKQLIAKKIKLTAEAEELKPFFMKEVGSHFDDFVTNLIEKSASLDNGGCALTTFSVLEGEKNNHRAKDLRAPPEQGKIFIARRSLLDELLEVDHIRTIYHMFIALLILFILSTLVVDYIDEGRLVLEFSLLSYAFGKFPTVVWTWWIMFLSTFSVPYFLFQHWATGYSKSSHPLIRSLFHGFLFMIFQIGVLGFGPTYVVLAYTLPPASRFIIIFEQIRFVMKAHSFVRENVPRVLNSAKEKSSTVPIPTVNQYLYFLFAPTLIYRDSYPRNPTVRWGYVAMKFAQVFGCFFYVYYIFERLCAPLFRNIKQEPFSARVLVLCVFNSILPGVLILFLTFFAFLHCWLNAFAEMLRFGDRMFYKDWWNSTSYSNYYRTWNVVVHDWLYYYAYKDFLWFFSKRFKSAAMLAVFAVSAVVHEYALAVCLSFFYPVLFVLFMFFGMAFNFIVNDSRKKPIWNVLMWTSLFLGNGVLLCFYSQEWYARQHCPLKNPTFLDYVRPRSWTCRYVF
Description: Inhibition of human ACAT1 by liquid scintillography

[6] = Oral bioavailability in rat; details: in vivo
[7] = Fraction unbound in human plasma at 37 degC by LC-UV/MS method based equilibrium dialysis method
[8] = Solubility in 0.1 M phosphate buffer at pH 7.4 at 25 degC incubated for 24 hrs
[9] = Intrinsic clearance in rat hepatocytes assessed as parent compound disappearance at 1 uM per 10^6 cells; type: ADME, cell-based, Hepatocyte; details: read-out: CLH
[10] = Octanol/water partition coefficient, log D of the compound at pH 7.4; type: physicochemical
[11] = Apparent permeability from apical to basolateral side in MDCK cells at pH 7.4; details: dog
[12] = Half life in Han-Wistar rat at 2.54 to 5.4 uM/kg, po; type: ADME, organism-based; details: in vivo

For `Cc1nc(C)c(-c2ccc([C@H]3CC[C@H](CC(=O)O)CC3)cc2)nc1C(=O)O`, the IC50 [1] was “Not Active”.

With `NCc1cncc(-c2ccc([C@H]3CC[C@H](CC(=O)O)CC3)cc2)n1` the chromatographic logD [2] was < 0 and the IC50 [1] was “Not Active”.

With `Cc1nc(C(C)C)c(-c2ccc([C@H]3CC[C@H](CC(=O)O)CC3)cc2)nc1C(N)=O` the IC50 [3] was > 10000 nM and the chromatographic logD [2] was 2.6.

With `NC(=O)c1cncc(-c2ccc([C@H]3CC[C@H](CC(=O)O)CC3)cc2)n1` the Papp A→B [4] was 29 ×10⁻⁶ cm/s, the IC50 [3] was 1900 nM and the IC50 [5] was > 100000 nM. The chromatographic logD [2] was < 0.1, the bioavailability [6] was 62% and the fraction unbound [7] was 0.035.

For `CC(C)(NC(=O)C[C@H]1CC[C@H](c2ccc(-c3cncc(C(N)=O)n3)cc2)CC1)C(=O)O`, the IC50 [3] was 1100 nM, the chromatographic logD [2] was < 0.1 and the solubility at 24 h [8] was > 100 µM. For the same compound, the hepatocyte CLint at 1 µM [9] was < 2 µL/min/1e6 cells.

For `Cc1nc(C)c(-c2ccc([C@H]3CC[C@H](CC(=O)O)CC3)c(Cl)c2)nc1C(N)=O`, the chromatographic logD [2] was 1.8.

`Cc1ncc(-c2ccc([C@H]3CC[C@H](CC(=O)O)CC3)cc2)nc1C(N)=O` showed a logD [10] of 1.

For `Cc1nc(C)c(-c2ccc3c(c2)CC[C@]32CC[C@@H](c3nnn[nH]3)CC2)nc1C(N)=O`, the chromatographic logD [2] was 1.4.

With `Cc1nc(C)c(-c2ccc([C@H]3CC[C@@H](CC(=O)O)CC3)c(F)c2)nc1C(N)=O` the chromatographic logD [2] was 1.2.

`Cc1nc(C(F)F)c(C(N)=O)nc1-c1ccc([C@H]2CC[C@H](CC(=O)O)CC2)cc1` showed a chromatographic logD [2] of 1.4.

For `Cc1ncc(C(N)=O)nc1-c1ccc([C@H]2CC[C@H](C(=O)O)CC2)cc1`, the chromatographic logD [2] was 0.22, the solubility at 24 h [8] was 1200 µM (≈ 407 µg/mL) and the hepatocyte CLint at 1 µM [9] was 72 µL/min/1e6 cells.

`Cc1nc(C)c(-c2ccc([C@H]3CC[C@@H](CC(=O)O)CC3)c(Cl)c2)nc1C(N)=O` gave a chromatographic logD [2] of 1.5.

`Cc1nc(C)c(-c2ccc3c(c2)CC[C@]32CC[C@@H](Cc3nnn[nH]3)CC2)nc1C(N)=O` showed a chromatographic logD [2] of 2.

With `N#C/N=C(\N)c1cncc(-c2ccc([C@H]3CC[C@H](CC(=O)O)CC3)cc2)n1` the chromatographic logD [2] was 1.2 and the IC50 [1] was “Not Active”.

In the case of `Cc1nc(-c2ccccc2)c(-c2ccc([C@H]3CC[C@H](CC(=O)O)CC3)cc2)nc1C(N)=O`, the IC50 [3] is reported as > 10000 nM and the chromatographic logD [2] is reported as 2.5.

For `Cc1nc(C(C)C)c(C(N)=O)nc1-c1ccc([C@H]2CC[C@H](CC(=O)O)CC2)cc1`, the IC50 [3] was > 10000 nM and the chromatographic logD [2] was 2.6.

Compound `Cc1nc(C)c(-c2ccc([C@H]3CC[C@H](CC(N)=O)CC3)cc2)nc1C(N)=O` has a Papp A→B [11] of 18 ×10⁻⁶ cm/s, a chromatographic logD [2] of 1.7 and a hepatocyte CLint at 1 µM [9] of 77 µL/min/1e6 cells. The fraction unbound [7] was 0.13.

In the case of `Cc1nc(C)c(-c2ccc([C@H]3CC[C@H](CCC(=O)O)CC3)cc2)nc1C(N)=O`, the logD [10] is reported as 1.6.

`Cc1nc(C)c(-c2ccc(C34CCC(C(=O)O)(CC3)CC4)cc2)nc1C(N)=O` showed a Papp A→B [11] of 13 ×10⁻⁶ cm/s, an IC50 [3] of 80 nM and an IC50 [5] of 15000 nM. The chromatographic logD [2] was 1.6, the solubility at 24 h [8] was 113 µM (≈ 42.9 µg/mL) and the half-life [12] was 7.3 h. The hepatocyte CLint at 1 µM [9] was < 2 µL/min/1e6 cells and the fraction unbound [7] was 0.006.

`Cc1nc(C)c(-c2ccc([C@H]3CC[C@H](CCO)CC3)cc2)nc1C(N)=O` showed a Papp A→B [4] of 58 ×10⁻⁶ cm/s, an IC50 [3] of 690 nM and a chromatographic logD [2] of 3.1. It also gave a solubility at 24 h [8] of 4 µM (≈ 1.41 µg/mL).

For `Cc1nc(C)c(-c2ccc([C@H]3CC[C@@H](CC(=O)O)CC3)cc2)nc1C(N)=O`, the IC50 [3] was 430 nM.

For `Cc1ncc(C(=O)N2CCOCC2)nc1-c1ccc([C@H]2CC[C@H](CC(=O)O)CC2)cc1`, the chromatographic logD [2] was 0.7 and the IC50 [1] was “Not Active”.

Source: ChEMBL document CHEMBL2176918, “Design and optimization of pyrazinecarboxamide-based inhibitors of diacylglycerol acyltransferase 1 (DGAT1) leading to a clinical candidate dimethylpyrazinecarboxamide phenylcyclohexylacetic acid (AZD7687)” (J Med Chem, 2012)
